According to a compilation of properties of binary mixtures (doi:10.1021/acs.iecr.0c01496):

Experiment: xn = mol fraction of the nth substance listed
Conditions: 101 kPa

CC[n+]1ccccc1.[Cl-] + CC[n+]1ccccc1.[Br-]
viscosity [mPa·s]
Conditions	403.1 K	408.1 K	413.1 K	418.1 K	423.1 K	428.1 K	433.1 K	438.1 K	443.1 K
x1 = 0.105	12.65	11.56	10.55	9.63	8.8	8.05	7.39	6.82	6.34
x1 = 0.196	12.66	11.53	10.51	–	–	7.97	7.31	6.75	6.27
x1 = 0.303	12.66	–	10.45	9.5	–	–	7.22	6.66	6.2
x1 = 0.387	12.65	–	10.31	9.37	8.55	7.84	7.23	6.69	6.22
x1 = 0.503	12.66	11.37	–	9.28	8.45	7.74	–	6.61	6.15
x1 = 0.613	12.67	11.33	10.19	–	–	7.65	7.05	–	6.08
x1 = 0.688	–	11.3	10.15	9.17	8.33	–	7	6.47	6.02
x1 = 0.803	12.66	11.26	10.08	9.08	8.24	7.52	6.9	6.38	5.94
x1 = 0.885	12.65	11.22	10.02	9.02	–	7.44	6.83	6.32	5.88

CCCC[n+]1ccccc1.[Cl-] + CCCC[n+]1ccccc1.[Br-]
viscosity [mPa·s]
Conditions	398.1 K	403.1 K	408.1 K	413.1 K	418.1 K	423.1 K	428.1 K	433.1 K	438.1 K	443.1 K
x1 = 0.084	–	–	22.9	19.4	16.6	–	12.56	11.09	9.91	8.95
x1 = 0.169	33.5	27.8	23.3	19.7	–	14.63	12.79	11.3	–	9.1
x1 = 0.292	33.8	28.1	23.6	20	17.2	14.84	12.97	–	10.22	9.22
x1 = 0.389	–	28.5	–	20.3	–	15.07	13.18	11.63	10.37	9.35
x1 = 0.469	–	29.1	24.5	20.9	18	15.61	13.69	12.13	–	9.81
x1 = 0.611	–	–	25.1	21.4	18.4	16.03	14.06	12.46	11.15	10.07
x1 = 0.689	–	–	–	21.5	–	16.11	14.13	12.51	11.17	10.08
x1 = 0.785	–	–	–	21.9	18.9	16.43	–	12.76	11.41	10.29
x1 = 0.892	–	–	–	–	–	–	14.84	–	–	10.63

CCCC[n+]1ccccc1.[Cl-] + CC[n+]1ccccc1.[Br-]
viscosity [mPa·s]
Conditions	x2 = 0.104	x2 = 0.193	x2 = 0.313	x2 = 0.408	x2 = 0.484	x2 = 0.604	x2 = 0.64	x2 = 0.694	x2 = 0.797	x2 = 0.894
368.1 K	–	–	–	–	56.3	46	43.6	39.7	–	–
373.1 K	–	–	–	–	47.7	39.5	37.6	34.5	–	–
378.1 K	–	–	–	–	40.7	34.1	32.6	30.1	26	–
383.1 K	–	–	–	38.5	34.8	29.6	28.3	26.3	23	–
388.1 K	–	–	–	32.9	–	25.7	24.7	–	20.4	–
393.1 K	–	36	31.5	28.3	25.9	22.5	–	20.4	–	16.16
398.1 K	–	30.5	27	24.4	22.5	19.7	19	18.01	16.16	14.53
403.1 K	28.4	26.1	23.3	–	19.7	–	16.77	15.99	14.46	13.09
408.1 K	24.4	22.4	20.2	18.5	17.27	15.38	–	14.24	–	11.82
413.1 K	21	–	17.7	16.27	15.24	13.66	–	–	–	10.69
418.1 K	–	16.98	15.51	14.37	13.52	12.2	–	–	10.53	9.7
423.1 K	16.01	14.92	–	12.77	12.04	10.92	10.59	10.27	–	–
428.1 K	14.14	13.22	–	11.41	10.79	–	9.53	–	8.64	8.01
433.1 K	12.59	11.8	10.96	10.25	–	8.86	–	8.41	7.85	7.31
438.1 K	11.29	10.6	9.89	9.26	8.8	–	7.81	7.65	7.17	–
443.1 K	10.22	9.6	8.97	8.42	8.01	7.32	–	6.98	–	6.11

CC[n+]1ccccc1.[Cl-] + CCCC[n+]1ccccc1.[Cl-]
viscosity [mPa·s]
Conditions	x1 = 0.121	x1 = 0.198	x1 = 0.302	x1 = 0.388	x1 = 0.504	x1 = 0.597	x1 = 0.702	x1 = 0.795	x1 = 0.804
363.1 K	–	–	–	–	–	–	–	58.2	57.9
368.1 K	–	–	–	–	–	–	–	47.6	47.5
373.1 K	–	–	–	–	–	–	–	39.3	39.3
378.1 K	–	–	–	–	–	–	–	–	32.7
383.1 K	–	–	–	–	–	–	–	27.4	27.4
388.1 K	–	–	–	–	–	28.8	25.5	23.1	–
393.1 K	–	–	–	–	–	24.4	21.6	19.7	–
398.1 K	–	–	–	25.3	–	20.7	–	16.8	–
403.1 K	–	–	–	21.5	20.1	17.8	15.9	14.53	–
408.1 K	–	–	20.2	18.5	17.4	15.39	13.73	12.63	12.79
413.1 K	–	–	17.5	15.98	15.22	13.41	11.98	–	11.23
418.1 K	17.66	17.21	15.22	13.94	–	11.79	10.54	9.75	9.93
423.1 K	15.42	15.14	13.36	–	11.92	10.44	9.33	8.67	8.86
428.1 K	13.58	13.44	11.83	10.85	10.69	9.32	–	–	7.96
433.1 K	12.06	12.04	10.56	9.69	9.66	–	7.5	7	7.21
438.1 K	10.81	10.88	–	8.73	8.81	7.61	–	6.37	6.58
443.1 K	9.77	9.92	8.64	7.94	–	6.96	6.22	5.84	–
